Source: patent publication US20260108546A1 (ELI LILLY AND COMPANY, priority 2024, published 2026)

Molecular target: T1, hGIP-R (Homo sapiens, UniProt P48546)
T1 construct: expressed in transfected cells; host or cells: HEK-293 clonal cell lines
T1 sequence (P48546 22-466): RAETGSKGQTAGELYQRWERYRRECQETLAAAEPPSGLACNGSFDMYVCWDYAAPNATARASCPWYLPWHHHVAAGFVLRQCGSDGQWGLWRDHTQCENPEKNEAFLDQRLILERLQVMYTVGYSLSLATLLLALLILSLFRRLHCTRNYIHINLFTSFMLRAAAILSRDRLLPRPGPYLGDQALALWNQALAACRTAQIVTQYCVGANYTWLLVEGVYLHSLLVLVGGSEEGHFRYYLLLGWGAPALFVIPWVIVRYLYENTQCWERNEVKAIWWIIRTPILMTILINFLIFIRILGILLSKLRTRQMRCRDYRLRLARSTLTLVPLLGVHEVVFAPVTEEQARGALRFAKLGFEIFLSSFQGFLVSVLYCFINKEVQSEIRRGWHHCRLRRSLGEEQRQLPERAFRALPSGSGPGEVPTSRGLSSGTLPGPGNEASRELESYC
Assay: Functional hGIP-R Assay (cAMP formation, HTRF)
Format: cell-based
Details: for Emax: cAMP efficacy, percent of maximal response to GIP(1-42)OH, 37° C., 0.1% bovine casein, arithmetic mean ± SEM; for EC50: cAMP potency, HEK-293 cells expressing hGIP-R, incubated at 37° C. in the presence of 0.1% bovine casein, geometric mean, read-out: Human GIP-R EC50, nM (SEM, n)
Method in brief: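 Relative EC50 and Emax came from four-parameter logistic fits of cAMP as a percent of the human GIP (1-42) OH maximal response. The cAMP was measured by competitive HTRF after 30 min, 37 °C compound exposure of hGIP-R HEK-293 clones in IBMX (250 μM)-containing medium.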

Row | SMILES | Emax | EC50
1 | CN(C(=O)[C@H]1C[C@@H]1c1ccc(-c2cnc3nn(C)cc3c2)cc1)[C@H](Cc1cnn(C)c1)C(=O)NC(C)(C)Cn1nc(C(F)(F)F)cc1-c1ccc(=O)n(C)c1 [Example 31, (1S,2S)-N-Methyl-N-((R)-1-((2-methyl-1-(5-(1-methyl-6-oxo-1,6-dihydropyridin-3-yl)-3-(trifluoromethyl)-1H-pyrazol-1-yl)propan-2-yl)amino)-3-(1-methyl-1H-pyrazol-4-yl)-1-oxopropan-2-yl)-2-(4-(2-methyl-2H-pyrazolo[3,4-b]pyridin-5-yl)phenyl) cyclopropane-1-carboxamide] | 117 ± 4.92% | 152 nM
2 | Cc1cn2cc(-c3ccc([C@H]4C[C@@]45CCN([C@H](Cc4cnn(C(F)F)c4)C(=O)NC(C)(C)Cn4nc(C(F)(F)F)cc4-c4ccc(=O)n(COP(=O)(O)O)n4)C5=O)c(F)c3)cnc2n1 [Example 151, (3-(1-(2-((R)-3-(1-(Difluoromethyl)-1H-pyrazol-4-yl)-2-((1S,3R)-1-(2-fluoro-4-(2-methylimidazo[1,2-a]pyrimidin-6-yl)phenyl)-4-oxo-5-azaspiro[2.4]heptan-5-yl)propanamido)-2-methylpropyl)-3-(trifluoromethyl)-1H-pyrazol-5-yl)-6-oxopyridazin-1 (6H)-yl)methyl dihydrogen phosphate] | 106 ± 2.17% | 16.9 nM
3 | Cn1cc(C[C@@H](NC(=O)[C@H]2C[C@@H]2c2ccc(-c3cnc4nn(C)cc4c3)cc2)C(=O)NC(C)(C)Cn2nc(C(F)(F)F)cc2-c2cnn(CC3COC3)c2)cn1 [Example 55, (1S,2S)-N-((R)-1-((2-Methyl-1-(1′-(oxetan-3-ylmethyl)-5-(trifluoromethyl)-1′H,2H-[3,4′-bipyrazol]-2-yl)propan-2-yl)amino)-3-(1-methyl-1H-pyrazol-4-yl)-1-oxopropan-2-yl)-2-(4-(2-methyl-2H-pyrazolo[3,4-b]pyridin-5-yl)phenyl) cyclopropane-1-carboxamide] | 109 ± 0.179% | 49.1 nM
4 | CC(C)(Cn1cc(C(F)(F)F)cn1)NC(=O)[C@@H](Cc1cnc2ncccn12)NC(=O)[C@H]1C[C@@H]1c1ccc(-c2cnc3nc(C(F)F)cn3c2)cc1 [Example 79, (1S,2S)-2-(4-(2-(Difluoromethyl)imidazo[1,2-a]pyrimidin-6-yl)phenyl)-N-((R)-3-(imidazo[1,2-a]pyrimidin-3-yl)-1-((2-methyl-1-(4-(trifluoromethyl)-1H-pyrazol-1-yl)propan-2-yl)amino)-1-oxopropan-2-yl)cyclopropane-1-carboxamide] | 104 ± 5% | 25.1 nM
5 | Cn1cc(C[C@@H](NC(=O)[C@H]2C[C@@H]2c2ccc(-c3cnc4nn(C)cc4c3)cc2)C(=O)NC(C)(C)Cn2nc(C(F)(F)F)cc2-c2cnn(C3COC3)c2)cn1 [Example 54, (1S,2S)-N-((R)-1-((2-Methyl-1-(1′-(oxetan-3-yl)-5-(trifluoromethyl)-1′H,2H-[3,4′-bipyrazol]-2-yl)propan-2-yl)amino)-3-(1-methyl-1H-pyrazol-4-yl)-1-oxopropan-2-yl)-2-(4-(2-methyl-2H-pyrazolo[3,4-b]pyridin-5-yl)phenyl) cyclopropane-1-carboxamide] | 137 ± 14.1% | 76.8 nM
6 | CC(C)(Cn1nc(C(F)(F)F)cc1C1CC1)NC(=O)[C@@H](Cc1cnc2ncccn12)NC(=O)[C@H]1C[C@@H]1c1ccc(NC(=O)C2CC(F)(F)C2)cc1 [Example 40, N-(4-((1S,2S)-2-(((R)-1-((1-(5-cyclopropyl-3-(trifluoromethyl)-1H-pyrazol-1-yl)-2-methylpropan-2-yl)amino)-3-(imidazo[1,2-a]pyrimidin-3-yl)-1-oxopropan-2-yl)carbamoyl)cyclopropyl)phenyl)-3,3-difluorocyclobutane-1-carboxamide] | 60.7 ± 0.306% | 3.55 nM
7 | Cc1cn2cc(-c3ccc(C4CC45CCN([C@H](Cc4cnn(C(F)F)c4)C(=O)NC(C)(C)Cn4nc(C(F)(F)F)cc4-c4ccn(C6CC6)c(=O)c4)C5=O)c(C4CC4)n3)cnc2n1 (single isomer, unassigned) [Example 167] | 92.1 ± 0.883% | 0.753 nM
8 | [2H]C([2H])([2H])n1cc(C[C@H](C(=O)NC(C)(C)Cn2nc(C(F)(F)F)cc2-c2cnc(C)nc2)N2CC[C@@]3(C[C@@H]3c3ccc(-c4cnc5nc(C)cn5c4)cc3Cl)C2=O)cn1 [Example 152, (R)-2-((1S,3R)-1-(2-Chloro-4-(2-methylimidazo[1,2-a]pyrimidin-6-yl)phenyl)-4-oxo-5-azaspiro[2.4]heptan-5-yl)-N-(2-methyl-1-(5-(2-methylpyrimidin-5-yl)-3-(trifluoromethyl)-1H-pyrazol-1-yl)propan-2-yl)-3-(1-(methyl-d3)-1H-pyrazol-4-yl)propanamide] | 87.2 ± 1.03% | 1.73 nM
9 | Cn1cc2cc(-c3ccc([C@H]4C[C@@]45CCN([C@H](Cc4cnn(C(F)F)c4)C(=O)NC(C)(C)Cn4nc(C(F)(F)F)cc4-c4ccc(C(N)=O)[nH]c4=O)C5=O)cc3)cnc2n1 [Example 132, 5-(1-(2-((R)-3-(1-(Difluoromethyl)-1H-pyrazol-4-yl)-2-((1R,3R)-1-(4-(2-methyl-2H-pyrazolo[3,4-b]pyridin-5-yl)phenyl)-4-oxo-5-azaspiro[2.4]heptan-5-yl)propanamido)-2-methylpropyl)-3-(trifluoromethyl)-1H-pyrazol-5-yl)-6-oxo-1,6-dihydropyridine-2-carboxamide] | 93.3 ± 0.0968% | 20.3 nM
10 | Cn1cc(-c2cc(C(F)(F)F)nn2CC(C)(C)NC(=O)[C@@H](Cc2cnn(C(F)F)c2)NC(=O)[C@H]2C[C@@H]2c2ccc3c(Cl)nn(C)c3c2)cc(F)c1=O [Example 183, (1S,2S)-2-(3-chloro-1-methyl-1H-indazol-6-yl)-N-((R)-3-(1-(difluoromethyl)-1H-pyrazol-4-yl)-1-((1-(5-(5-fluoro-1-methyl-6-oxo-1,6-dihydropyridin-3-yl)-3-(trifluoromethyl)-1H-pyrazol-1-yl)-2-methylpropan-2-yl)amino)-1-oxopropan-2-yl)cyclopropane-1-carboxamide] | 4.64 ± 0.608% | 44.9 nM
11 | Cn1cc2cc(-c3ccc([C@H]4C[C@@]45CCN([C@H](Cc4cnn(C(F)F)c4)C(=O)NC(C)(C)Cn4nc(C(F)(F)F)cc4-c4ccc(=O)n(C)c4)C5=O)c(F)c3)cnc2n1 [Example 117, (2R)-3-(1-(Difluoromethyl)-1H-pyrazol-4-yl)-2-((1S,3R)-1-(2-fluoro-4-(2-methyl-2H-pyrazolo[3,4-b]pyridin-5-yl)phenyl)-4-oxo-5-azaspiro[2.4]heptan-5-yl)-N-(2-methyl-1-(5-(1-methyl-6-oxo-1,6-dihydropyridin-3-yl)-3-(trifluoromethyl)-1H-pyrazol-1-yl)propan-2-yl)propanamide] | 56 ± 3.91% | 4.39 nM
12 | Cn1cc(-c2cc(C(F)(F)F)nn2CC(C)(C)NC(=O)[C@@H](Cc2cnn(C(F)F)c2)N2CCC3(CC3c3ccc4cnn(C)c4c3)C2=O)cc(F)c1=O (single isomer, unassigned) [Example 184] | 15.2 ± 1.27% | 15.2 nM
13 | [2H]C([2H])([2H])n1cc(-c2cc(C(F)(F)F)nn2CC(C)(C)NC(=O)[C@@H](Cc2cnn(C(F)F)c2)N2CC[C@@]3(C[C@@H]3c3ccc(-c4cnc5nn(C)cc5c4)cc3)C2=O)cc(F)c1=O [Example 141, (R)-3-(1-(Difluoromethyl)-1H-pyrazol-4-yl)-N-(1-(5-(5-fluoro-1-(methyl-d3)-6-oxo-1,6-dihydropyridin-3-yl)-3-(trifluoromethyl)-1H-pyrazol-1-yl)-2-methylpropan-2-yl)-2-((1R,3R)-1-(4-(2-methyl-2H-pyrazolo[3,4-b]pyridin-5-yl)phenyl)-4-oxo-5-azaspiro[2.4]heptan-5-yl)propanamide] | 60.9 ± 5.88% | 26.2 nM
14 | Cn1cc2cc(-c3ccc([C@H]4C[C@@]45CCN([C@H](Cc4cnn(C(F)F)c4)C(=O)NC(C)(C)Cn4nc(C(F)(F)F)cc4-c4cccn(CC(N)=O)c4=O)C5=O)cc3)cnc2n1 [Example 126, (R)-N-(1-(5-(1-(2-Amino-2-oxoethyl)-2-oxo-1,2-dihydropyridin-3-yl)-3-(trifluoromethyl)-1H-pyrazol-1-yl)-2-methylpropan-2-yl)-3-(1-(difluoromethyl)-1H-pyrazol-4-yl)-2-((1R,3R)-1-(4-(2-methyl-2H-pyrazolo[3,4-b]pyridin-5-yl)phenyl)-4-oxo-5-azaspiro[2.4]heptan-5-yl)propanamide] | 93.6 ± 1.06% | 42.3 nM
15 | CC(C)(Cn1cc(C(F)(F)F)cn1)NC(=O)[C@@H](Cc1cnc2ncccn12)NC(=O)[C@H]1C[C@@H]1c1ccc(NC(=O)C2CCC(F)(F)CC2)cc1 [Example 45, 4,4-Difluoro-N-(4-((1S,2S)-2-(((R)-3-(imidazo[1,2-a]pyrimidin-3-yl)-1-((2-methyl-1-(4-(trifluoromethyl)-1H-pyrazol-1-yl)propan-2-yl)amino)-1-oxopropan-2-yl)carbamoyl)cyclopropyl)phenyl)cyclohexane-1-carboxamide] | 79.8 ± 9.84% | 10.7 nM
